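Tested at 5 concentrations; 48 h exposure; 96-well plates; endpoints linearly interpolated, else capped at highest concentration. GI50 is the concentration that inhibits growth by half.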 Calls of active or inactive are those of the source. Rule as the data show it: active = GI50 up to about 1.1 µM and inactive = higher.
How the values were obtained:
Assay in all cases: NCI tumour cell line growth inhibition, 48 h
[1] = system: XF498
[2] = system: OVCAR-3
[3] = system: HCT-15
[4] = system: SF-268
[5] = system: HOP-92
[6] = system: SK-MEL-2
[7] = system: COLO 205
[8] = system: HCC 2998
[9] = system: SN12C
[10] = system: NCI-H522
[11] = system: M19-MEL
[12] = system: RXF 631
[13] = system: LOX IMVI
[14] = system: EKVX
[15] = system: U-251
[16] = system: DMS-273
[17] = system: NCI-H460
[18] = system: KM-20L2
[19] = system: HT-29
[20] = system: SW-620
[21] = system: OVCAR-4
[22] = system: SNB-19
[23] = system: OVCAR-8
[24] = system: A498
[25] = system: SF-295
[26] = system: HOP-18
[27] = system: NCI-H23
[28] = system: ACHN
[29] = system: TK-10
[30] = system: A549
[31] = system: NCI-H226
[32] = system: RPMI-8226
[33] = system: MOLT-4
[34] = system: KM12
[35] = system: SK-MEL-28
[36] = system: UO-31
[37] = system: CCRF-CEM
[38] = system: OVCAR-5
[39] = system: CAKI-1
[40] = system: 786-0
[41] = system: Malme-3M
[42] = system: HCT-116
[43] = system: UACC-62
[44] = system: SK-OV-3
[45] = system: K562
[46] = system: HL-60
[47] = system: SF-539
[48] = system: DMS-114
[49] = system: LXFL 529
[50] = system: HOP-62
[51] = system: IGROV-1
[52] = system: SNB-78
[53] = system: M14
[54] = system: DLD-1
[55] = system: RXF 393
[56] = system: UACC-257
[57] = system: SK-MEL-5
[58] = system: SR
[59] = system: SNB-75

## CNC(=O)OCc1c2ccncc2c(C)c2c1[nH]c1ccc(OC)cc12
[1]
  GI50: 1.03 µM (active)
[2]
  GI50: 0.311 µM (active)
[3]
  GI50: 0.495 µM
[4]
  GI50: 0.161 µM (active)
[5]
  GI50: 0.187 µM (active)
[6]
  GI50: 0.181 µM (active)
[7]
  GI50: 0.536 µM (active)
[8]
  GI50: 0.29 µM (active)
[9]
  GI50: 0.678 µM (active)
[10]
  GI50: 0.0805 µM (active)
[11]
  GI50: 0.344 µM (active)
[12]
  GI50: 0.675 µM (active)
[13]
  GI50: 0.256 µM (active)
[14]
  GI50: 2.21 µM (inactive)
[15]
  GI50: 0.182 µM (active)
[16]
  GI50: 0.379 µM (active)
[17]
  GI50: 0.19 µM (active)
[18]
  GI50: 0.227 µM (active)
[19]
  GI50: 0.33 µM (active)
[20]
  GI50: 0.164 µM (active)
[21]
  GI50: 0.256 µM (active)
[22]
  GI50: 0.267 µM (active)
[23]
  GI50: 0.209 µM (active)
[24]
  GI50: 0.176 µM (active)
[25]
  GI50: 0.352 µM (active)
[26]
  GI50: 0.254 µM (active)
[27]
  GI50: 0.115 µM (active)
[28]
  GI50: 0.193 µM (active)
[29]
  GI50: 0.953 µM (active)
[30]
  GI50: 0.39 µM (active)
[31]
  GI50: 0.179 µM (active)
[32]
  GI50: 0.183 µM (active)
[33]
  GI50: 0.0404 µM (active)
[34]
  GI50: 0.573 µM (active)
[35]
  GI50: 0.605 µM (active)
[36]
  GI50: 0.148 µM (active)
[37]
  GI50: 0.176 µM (active)
[38]
  GI50: 0.247 µM (active)
[39]
  GI50: 0.968 µM (active)
[40]
  GI50: 0.156 µM (active)
[41]
  GI50: 0.353 µM (active)
[42]
  GI50: 0.156 µM (active)
[43]
  GI50: 0.16 µM (active)
[44]
  GI50: 0.212 µM (active)
[45]
  GI50: 0.322 µM (active)
[46]
  GI50: 0.204 µM (active)
[47]
  GI50: 0.154 µM (active)
[48]
  GI50: 0.226 µM (active)
[49]
  GI50: 0.115 µM (active)
[50]
  GI50: 0.156 µM (active)
[51]
  GI50: 0.284 µM (active)
[52]
  GI50: 0.119 µM (active)
[53]
  GI50: 0.57 µM (active)

## Nc1nc(N)c(-c2ccc(Cl)cc2)c(CCC(=O)Nc2cccc(C(F)(F)F)c2)n1
[1]
  GI50: > 100 µM (inactive)
[54]
  GI50: > 100 µM (inactive)
[2]
  GI50: > 100 µM (inactive)
[3]
  GI50: > 100 µM
[4]
  GI50: > 100 µM (inactive)
[6]
  GI50: > 100 µM (inactive)
[7]
  GI50: > 100 µM (inactive)
[55]
  GI50: > 100 µM (inactive)
[8]
  GI50: > 100 µM (inactive)
[9]
  GI50: > 100 µM (inactive)
[10]
  GI50: > 100 µM (inactive)
[12]
  GI50: > 100 µM (inactive)
[13]
  GI50: > 100 µM (inactive)
[14]
  GI50: > 100 µM (inactive)
[15]
  GI50: > 100 µM (inactive)
[16]
  GI50: > 100 µM (inactive)
[56]
  GI50: > 100 µM (inactive)
[17]
  GI50: > 100 µM (inactive)
[18]
  GI50: > 100 µM (inactive)
[19]
  GI50: > 100 µM (inactive)
[20]
  GI50: > 100 µM (inactive)
[21]
  GI50: > 100 µM (inactive)
[22]
  GI50: > 100 µM (inactive)
[23]
  GI50: > 100 µM (inactive)
[24]
  GI50: > 100 µM (inactive)
[25]
  GI50: > 100 µM (inactive)
[26]
  GI50: > 100 µM (inactive)
[27]
  GI50: > 100 µM (inactive)
[57]
  GI50: > 100 µM (inactive)
[28]
  GI50: > 100 µM (inactive)
[29]
  GI50: > 100 µM (inactive)
[30]
  GI50: > 100 µM (inactive)
[31]
  GI50: > 100 µM (inactive)
[33]
  GI50: > 100 µM (inactive)
[34]
  GI50: > 100 µM (inactive)
[35]
  GI50: > 100 µM (inactive)
[36]
  GI50: > 100 µM (inactive)
[37]
  GI50: > 100 µM (inactive)
[38]
  GI50: > 100 µM (inactive)
[39]
  GI50: > 100 µM (inactive)
[40]
  GI50: > 100 µM (inactive)
[58]
  GI50: > 100 µM (inactive)
[41]
  GI50: > 100 µM (inactive)
[42]
  GI50: > 100 µM (inactive)
[43]
  GI50: > 100 µM (inactive)
[44]
  GI50: > 100 µM (inactive)
[45]
  GI50: > 100 µM (inactive)
[46]
  GI50: > 100 µM (inactive)
[47]
  GI50: > 100 µM (inactive)
[48]
  GI50: > 100 µM (inactive)
[59]
  GI50: > 100 µM (inactive)
[49]
  GI50: > 100 µM (inactive)
[50]
  GI50: > 100 µM (inactive)
[51]
  GI50: > 100 µM (inactive)
[52]
  GI50: > 100 µM (inactive)
[53]
  GI50: > 100 µM (inactive)

## c1ccc2c(CN3CCC(C4CCN(Cc5cccc6ccccc56)CC4)CC3)cccc2c1
[1]
  GI50: 4.75 µM (inactive)
[54]
  GI50: 2.09 µM (inactive)
[2]
  GI50: 39.7 µM (inactive)
[6]
  GI50: 6.21 µM (inactive)
[7]
  GI50: 1.72 µM (inactive)
[55]
  GI50: 11.9 µM (inactive)
[8]
  GI50: 1.09 µM (active)
[9]
  GI50: > 63 µM (inactive)
[10]
  GI50: 12.9 µM (inactive)
[11]
  GI50: 6.64 µM (inactive)
[12]
  GI50: 12.2 µM (inactive)
[15]
  GI50: 11.3 µM (inactive)
[16]
  GI50: 6.73 µM (inactive)
[56]
  GI50: 2.1 µM (inactive)
[17]
  GI50: 19 µM (inactive)
[18]
  GI50: 2.81 µM (inactive)
[19]
  GI50: 3.11 µM (inactive)
[25]
  GI50: 7.64 µM (inactive)
[26]
  GI50: 40.1 µM (inactive)
[57]
  GI50: 4.22 µM (inactive)
[28]
  GI50: 36.1 µM (inactive)
[29]
  GI50: 17.7 µM (inactive)
[30]
  GI50: 38.3 µM (inactive)
[32]
  GI50: 3.66 µM (inactive)
[33]
  GI50: 5.7 µM (inactive)
[40]
  GI50: 16 µM (inactive)
[41]
  GI50: 2.4 µM (inactive)
[43]
  GI50: 5.64 µM (inactive)
[44]
  GI50: 21.1 µM (inactive)
[45]
  GI50: 1.53 µM (inactive)
[46]
  GI50: 1.98 µM (inactive)
[48]
  GI50: 2.64 µM (inactive)
[49]
  GI50: 5.74 µM (inactive)
[50]
  GI50: 14.7 µM (inactive)
[52]
  GI50: 23.7 µM (inactive)
[53]
  GI50: 1.92 µM (inactive)

From ChEMBL document CHEMBL1201862, “PubChem BioAssay data set” (2004)
